Data published in patent publication US20040009947A1, “Compounds and methods for enhancing delivery of free polynucleotide” (priority 1998, published 2004).
Entries after “also recorded” stand apart in the source; their conditions may differ. Where a name gives a salt, the structure may show the parent alone.

Assays:
mouse lung = experiment: Intratracheal plasmid transfection of mouse lung, luciferase reporter assay of lung homogenate; format: in vivo; conditions: for Level of reporter protein expression after intratracheal administration of plasmid, enhancement by co-administration: intratracheal plasmid with DNAse inhibitor, mouse lung
16HBE14o = experiment: Transfection of cultured cells with DNA/DOTAP +/- ATA, luciferase assay; format: cell-based, human; conditions: very highest doses 80 μg/ml, 40 μg/ml, 10 μg/ml
Method: The human respiratory epithelial cell line, 16HBE14o (Dieter Grunert, UCSF) was cultured on flasks coated with fibronectin (Collaborative Research-Bectin Dickinson), vitrogen (Collagen Corp), basal media (Biofluids, Inc.) and bovine serum albumen (Biofluids, Inc.) as previously described [Gruenert, 1990 #7; Cozens, 1994 #8]. Cells were cultured on twenty four well tissue culture plates (Corning) coated with the above mixture. Culture media was Eagle's modified essential medium (EM) supplemented with 10% fetal bovine serum. 16HBE 14o cells were plated at a density of 5×10^4 cells/ml 24 hours prior to transfection and cells were transfected as subconfluent monolayer. […]
(§1) Relative luciferase activity was determined using the Enhanced Luciferase Assay Kit and Monolight 2010 luminometer (Analytical Luminescence Laboratories, San Diego, Calif.). […] For In vitro experiments, luciferase light emissions from 20 μl of the cell lysate were measured over a 10 second period, and results expressed as a function of the total lysate volume. For in vivo experiments, luciferase light emissions from […] of the lysate were measured over a 10 second period, and results expressed as a function of the total lysate volume.

[1] = Toxicity of intratracheal ATA/plasmid in mice (lethality, health assessment, lung histology); format: in vivo, mouse; conditions: for mice died: within 8 to 24 hours, pilot experiments
Method: Dose-response experiments can be used to efficacy, toxicity, and effective dose of a particular enhancing agent or polynucleotide preparation. […] Histologic evaluation of treated lung tissue was subsequently performed. […] ATA is often employed for inhibition of cultured cell apoptosis, but relatively few publications describe in vivo applications. In vivo dosing employed in published reports ranges from 4 micrograms administered to the […] cerebral ventricle of gerbils to 10 mg/kg/hour continuous infusion in a hamster carotid stenosis model Based on this literature, a dose range from 0.1 mg/kg to 8 mg/kg ATA administered with 100 micrograms of plasmid was tested. […] Subsequent histologic examination was performed using lung tissue obtained from mice treated with up to 5 mg/kg ATA.
To obtain information about toxicity, mouse lung tissue was treated with ATA +/− plasmid and routine histologic analyses were performed. […] Therefore, intratracheal instillation of plasmid +/− ATA was performed, and two days later the treated tissues were histologically analyzed after inflation and fixation in formalin followed by routine hematoxylin and eosin staining in paraffin sections. Treatment groups included untreated controls, 100 μl of water for injection (WFI), 100 μg of pND2Lux diluted in WFI, and plasmid with […] body mass diluted in WFI. The images shown in FIG. 9 are representative photomicroscopic fields that include both conducting airway and pulmonary parenchyma.

NIH3T3 = experiment: Transfection of cultured cells with DNA/DOTAP +/- ATA, luciferase assay; format: cell-based; conditions: very highest doses 80 μg/ml, 40 μg/ml, 10 μg/ml
Method: NIH3T3 (ATCC CRL 1658) were grown in Dulbecco's Modified Eagle's Medium and 10% calf serum. NIH3T3 were also plated at a density of 5×10^4 cells/ml in 24 well plates 24 hours prior to transfection and cells were transfected as subconfluent monolayer.
The sequential addition of appropriate amounts of serum-free DMEM, plasmid DNA ([…]), ATA in serum-free DEM and filter sterilized (see below for doses), and DOTAP (DOTAP:DNA formulation of 5 μg: 1 μg) were pippetted into a 2 ml Eppendorf tube to give a total volume of […] and mixed with a vortex mixer. A […] aliquot of the resultant transfection complex was added to each well of the cells above after the cell media had been aspirated off. The cells were incubated for 2 hours at 37° C. At the two hour time point, the mixture was removed and one ml of culture media was added to each well. […]
as §1

[2] = test system: macaque respiratory tissues; experiment: Bronchoscopic administration of plasmid +/- ATA to macaque lung, luciferase assay and histology; format: in vivo; conditions: 48 hours after treatment, H&E
Method: Extending the experiment from murine to nonhuman primate respiratory tissues, the activity of ‘free’ plasmid DNA +/− ATA in macaque respiratory tissues using male rhesus macaques was tested. Initially, the lavage fluid is tested for DNAse activity +/− ATA by incubation with plasmid after which gel electrophoresis is performed as described above with murine lung lavage samples. After a 70 day quarantine, the animals are treated using three general techniques. For direct administration of […] to pulmonary parenchyma, macaques are anesthetized (ketamine, veterinarian assisted) and a pediatric bronchoscope will be passed per nasum with direct visualization of the bronchial tree. Typically, plasmid preparations (3 ml/Kg macaque weight) or related treatments (plasmid/ATA mixtures etc.) are instilled directly via the bronchoscope into the right lower lobe. The left upper lobe of the same macaque is used as an internal control. […]
As described above, relative luciferase activity is determined using the Enhanced Luciferase Assay Kit and a Monolight 2010 luminometer (both from Analytical Luminescence Laboratories, San Diego, Calif.). […] Luciferase light emissions from 31 microliters of the lysate are measured over a 10 second period, and results are expressed as a function of total protein, total tissue mass, and total DNA dose.

Macaque Skin = experiment: Intradermal injection of luciferase DNA into macaque skin +/- ATA; format: in vivo; conditions: 100 μg plasmid and 50 μg ATA intradermal versus plasmid alone
Method: To further confirm the utility of nuclease inhibitors in combination with direct DNA delivery, the activity of free plasmid DNA +/− ATA in skin tissues was tested. The plasmid and animal protocols were identical to those described above. Intradermal injections were performed by injecting 100 μl solutions using 30 gauge needle.
The experiment was further extended from murine to primate, testing direct intradermal injection on macaques. The control solution was identical to that described for the mice and rat protocols. The test solution contained 100 μg of pND21ux plasmid and 50 μg of ATA in 100 μl water. Ten macaques were included in the control group and twelve were included in the test group.

O=C(O)CN(CCN(CC(=O)O)CC(=O)O)CC(=O)O [EDTA, ethylenediaminetetraacetic acid]
Level of reporter protein expression after intratracheal administration of plasmid, enhancement by co-administration (mouse lung): Neither EDTA nor citrate significantly enhanced the level of expression

O=C(O)CC(O)(CC(=O)O)C(=O)O [sodium citrate]
Level of reporter protein expression after intratracheal administration of plasmid, enhancement by co-administration (mouse lung; listed as citrate): Neither EDTA nor citrate significantly enhanced the level of expression

O=C(O)C1=CC(=C(c2ccc(O)c(C(=O)O)c2)c2ccc(O)c(C(=O)O)c2)C=CC1=O [ATA, aurin tricarboxylic acid]
Toxicity to cells (16HBE14o): toxic and killed cells | lethality due to the ATA ([1]; 2 mg/kg ATA or lower doses, during the 48 hours after treatment): no lethality | mice died ([1]; 6 mg/kg ATA intratracheal with 100 micrograms plasmid): 50% | mice died ([1]; 8 mg/kg ATA intratracheal with 100 micrograms plasmid): 100% | pulmonary dose associated with significant mortality ([1]; intratracheal, mouse): > 2 μg/g body weight | Lung histology (H&E) after intratracheal plasmid +/- ATA ([1]; mouse lung, two days after treatment, plasmid with 0.5 or 6 mg ATA/g body mass): indistinguishable; also recorded: virtually nontoxic to the lung; also recorded: No significant histologic alterations | Health assessment of mice after transfection ([1]; up to 48 hours after transfection): healthy with no physical or behavioral side effects observed | increase over free DNA transfections (mouse lung; doses of ATA virtually nontoxic to the lung): 57% | Toxicity to cells (NIH3T3): toxic and killed cells | Histologically apparent acute toxicity [2]: lack of histologically apparent acute toxicity | enhancement of reporter gene expression, test group on average (Macaque Skin): 11 fold
